We go through 10 compounds from PubChem BioAssay (NCI).

The structures appear in SMILES notation.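 Compound exposure: 48 hours, 5 concentrations, 96-well plates. The concentration for full growth arrest is given as TGI.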

Holding throughout (assay): inhibition of tumour cell growth, NCI panel, 48 h
For test [1], the system named is A549 NSCLC.
The test system of test [2] is CAKI-1 renal.
For test [3], the system named is CCRF-CEM leukemia.
The test system of test [4] is EKVX NSCLC.
Test [5] relates to HCC-2998 colon.
Test [6] concerns HCT-15 colon.
Test [7] has as its system HOP-92 NSCLC.
In test [8] the test system is IGROV1 ovarian.
The subject of test [9] is K-562 leukemia.
Test [10] has as its system NCI-H460 lung.
Test [11] has as its system SF-539 CNS.
The test system of test [12] is SK-OV-3 ovarian.
The subject of test [13] is UACC-257 melanoma.

For `CCOC(=O)CC1=N/C(=N/C(=N)N[N+](=O)[O-])SC1`, the TGI in test [1], in test [2], in test [3], in [4], in test [5] and in [6] was over 100 µM in each case. Also, the TGI in test [7], in test [8], in [9], in test [10], in test [11] and in test [12] was over 100 µM each time. Also, the TGI in test [13] was over 100 µM.
For the compound `C=C=C[P+](c1ccccc1)(c1ccccc1)c1ccccc1`, the TGI in [1] is over 100 µM; in test [3], 22.3 µM; in [5], over 100 µM; in test [6] it was 73.8 µM; in test [8], over 100 µM; in [9], 9.46 µM. The TGI was 45.7 µM in test [10], 40.2 µM in test [11], over 100 µM in [12] and 39.5 µM in test [13].
Regarding `Nc1ccccc1N`, the TGI in [1], in test [2], in test [3], in [5], in test [6] and in [7] was over 100 µM each time. In addition, the TGI in test [8], in [9], in test [10], in test [11] and in [12] was over 100 µM each time.
For `CCN(CC)C(=O)CCn1ccc(=O)[nH]c1=O`, the TGI in test [1], in [3], in test [4], in test [6], in [8] and in test [9] was over 100 µM each time. For the same compound, the TGI in test [10] and in [11] was over 100 µM throughout.
Take `O=C1C(Cl)C(c2cccc([N+](=O)[O-])c2)N1n1cnc2ccccc2c1=O` (centres undefined): the TGI in test [1], in [2], in test [4], in test [5], in test [6] and in [8] was over 100 µM throughout. Further, the TGI in [9], in test [10], in test [12] and in test [13] was over 100 µM in each case.
With `C/C(=N/NC(=O)c1ccccc1S(N)(=O)=O)C(CN1CCCCC1)C(C1=C(O)C2C=CC=CC2OC1=O)c1ccccc1` (centres undefined), the TGI is over 100 µM in test [1]; over 100 µM in test [2]; 67.7 µM in test [3]; over 100 µM in test [4]; over 100 µM in test [6]; 77.1 µM in test [7]. The TGI in test [8], in test [9], in [10], in test [11], in test [12] and in test [13] was over 100 µM each time.
Turning to `CC(=O)OCC1OC(N2C(=O)[C@@H](Oc3ccccc3)[C@H]2/C=C/c2ccccc2)C(OC(C)=O)C(OC(C)=O)C1OC(C)=O` (some centres undefined), the TGI in test [1], in test [3], in test [4], in test [5], in [6] and in test [7] was over 100 µM each time. In addition, the TGI in test [8], in [9], in test [10], in [11], in [12] and in test [13] was over 100 µM throughout.
In the case of `COc1cccc2c1C(=O)c1c(O)c3c(c(O)c1C2=O)C[C@@](O)(C(=O)CO)CC3OC1CC(N(C)CCOCC(OC(C)=O)OC(C)=O)C(O)C(C)O1` (some centres undefined), the TGI in test [1], in test [2], in test [3], in test [4], in test [5] and in test [7] was over 0.01 µM each time. The TGI in test [8], in test [9], in [10], in test [11], in test [12] and in test [13] was over 0.01 µM in each case.
Consider `CC1(OCc2ccccc2)C(=O)N2C1NCC2(C)C` (centres undefined), for which the TGI in test [1], in [3], in [4], in [5], in test [6] and in test [8] was over 100 µM in each case. The TGI in test [9], in test [10], in test [11] and in [13] was over 100 µM throughout.
In the case of `C=C(Br)C(C)(Cl)CCC(Br)C(C)(C)Br` (centres undefined), the TGI in test [1] is over 100 µM; in test [2], over 100 µM; in test [3], 59.6 µM; in test [6], over 100 µM; in test [7] it was over 100 µM; in test [8], over 100 µM. For the same compound, the TGI in [9] is 80.9 µM; in test [10], over 100 µM; in test [11], over 100 µM; in test [12], over 100 µM; in test [13], over 100 µM.
